Results published in PubChem BioAssay (NCI).
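96-well plates; 48 h exposure; 5 concentrations. Endpoints by linear interpolation between flanking doses. Not reached: highest tested concentration assigned. TGI: total growth inhibition.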

Experiments:
Assay in all cases: inhibition of tumour cell growth, NCI panel, 48 h
MDA-N = system: MDA-N
NCI-H226 lung = system: NCI-H226 lung
OVCAR-4 ovarian = system: OVCAR-4 ovarian
SK-MEL-5 melanoma = system: SK-MEL-5 melanoma
M14 melanoma = system: M14 melanoma
A498 renal = system: A498 renal
MDA-MB-231 breast = system: MDA-MB-231 breast
OVCAR-5 ovarian = system: OVCAR-5 ovarian
SK-MEL-2 melanoma = system: SK-MEL-2 melanoma
SNB-75 CNS = system: SNB-75 CNS
DU-145 prostate = system: DU-145 prostate
NCI/ADR-RES ovarian = system: NCI/ADR-RES ovarian

Row | Compound | TGI (MDA-N) [µM] | TGI (NCI-H226 lung) [µM] | TGI (OVCAR-4 ovarian) [µM] | TGI (SK-MEL-5 melanoma) [µM] | TGI (M14 melanoma) [µM] | TGI (A498 renal) [µM] | TGI (MDA-MB-231 breast) [µM] | TGI (OVCAR-5 ovarian) [µM] | TGI (SK-MEL-2 melanoma) [µM] | TGI (SNB-75 CNS) [µM] | TGI (DU-145 prostate) [µM] | TGI (NCI/ADR-RES ovarian) [µM]
1 | Nc1ccc(-c2nc3ccccc3s2)cc1Cl | > 100 | > 100 | > 100 | > 100 | > 100 | 4.17 | > 100 | > 100 | > 100 | > 93.5 | > 100 | > 100
2 | COc1ccccc1-n1c(=O)n(C)c(=O)n1C(C)(C)C | > 100 | > 100 | > 100 | > 100 | > 100 | > 100 | > 100 | > 100 | > 100 | > 100 | > 100 | > 100
3 | N#CC(CCN1CCC(Nc2ccccc2)(c2nnnn2C2CCCCC2)CC1)(c1ccccc1)c1ccccc1 | > 100 | > 100 | > 100 | > 100 | > 100 | > 100 | > 100 | > 100 | > 100 | > 100 | > 100 | > 100
4 | CCCCc1ccc(Nc2ncc3ncn(COCCO)c3n2)cc1 | > 100 | > 100 | > 100 | 49.6 | 53 | > 100 | 57.4 | > 100 | 73.1 | 65.3 | > 100 | > 100
5 | COC(=O)C1=C(OC(=O)/C(=C/c2ccccc2)c2ccc(OC)cc2)C(C(=O)OC)[C@@]2(O)[C@@H](C(=O)OC)[C@H](C)C[C@@H]1[C@@H]2C(=O)OC (stereo partly specified) | > 100 | > 100 | > 100 | > 100 | > 100 | > 100 | 90.8 | > 100 | > 100 | > 100 | > 100 | > 100
6 | Cc1cccc2c(N)c3cccc(C(=O)NCC[N+](C)(C)Cc4ccc([N+](=O)[O-])s4)c3nc12 | 49.9 | 21.9 | 25.1 | 28.2 | 39.7 | 23.6 | 21.3 | > 61.2 | > 77.6 | 43.8 | 46.8 | > 100
7 | CCOC(=O)/C(C(N)=O)=C(\O)C(=O)/C(Br)=C(\O)c1ccccc1 | 32.2 | 51.6 | 56.5 | 30.5 | 29.3 | > 100 | 34.2 | 37.5 | 37.4 | 32.1 | 39.7 | 72.9
8 | FC(F)(F)c1cc(N(C2c3ccccc3C=Cc3ccccc32)P(Cl)Cl)cc(C(F)(F)F)c1 | 76.9 | 38.7 | 42.9 | 32.7 | 58 | 56.8 | 35 | 49.6 | 37 | 61.7 | 40.3 | 21.6
9 | COc1cc(/C=C2\CC/C(=C\c3cc(OC)c(O)c(OC)c3)C2=O)cc(OC)c1O | > 23.4 | > 33.3 | 6.05 | 5.57 | > 23.6 | 2.86 | 21.4 | > 100 | 2.02 | 8.06 | 16.5 | 13.9
10 | O[C@@H]1C=C[C@]23CCN(Cc4cc5c(cc42)OCO5)[C@@H]3C1 | > 100 | > 100 | > 100 | > 100 | > 100 | > 100 | > 100 | > 100 | > 100 | > 100 | > 100 | > 100
11 | O=C(c1ccccc1)c1ccc2nc(-c3c(Cl)c(Cl)c(Cl)c(Cl)c3-c3nnc(-c4ccccc4)o3)[nH]c2c1 | 15.5 | 97.7 | > 100 | 54.1 | > 100 | 78.4 | > 100 | > 100 | > 100 | 84.4 | > 100 | > 100
12 | Cc1cn(C2CCC(CO)(CF)O2)c(=O)[nH]c1=O (stereo unspecified) | > 100 | > 100 | > 100 | > 100 | > 100 | > 100 | > 100 | > 100 | > 100 | > 100 | > 100 | > 100
13 | CN1/C(=C/C=C/C=C/C=C2C(=O)c3ccccc3C2=O)C(C)(C)c2ccccc21 | > 100 | > 100 | > 100 | 36.1 | > 100 | 65.2 | > 100 | > 100 | 66.3 | > 100 | > 100 | > 100
